{"source": "paper PMC5218480", "about": "(PLoS ONE, 2017)", "tested_on": "MV-4-11 cells", "test": "Gene expression microarray analysis (Affymetrix PrimeView) and GSEA", "format": "cell-based, human", "conditions": "gene VPS36, vacuolar protein sorting 36 homolog; Azacitidine 1 mM; LIST F"}
{"molecule": "Nc1ncn([C@@H]2O[C@H](CO)[C@@H](O)[C@H]2O)c(=O)n1", "note": "[azacitidine]", "values": [{"measurement": "RFU, VPS36 (ProbeSet 11739960_a_at)", "value": 118.04, "unit": "RFU"}]}
